Measurements reported in publication PMC4831868 (Cell reports, 2012).

Biological target: pHipA (Escherichia coli, UniProt P23874)
Assay: ITC
Details: no binding

Sequence of pHipA (P23874 whole entry, looked up): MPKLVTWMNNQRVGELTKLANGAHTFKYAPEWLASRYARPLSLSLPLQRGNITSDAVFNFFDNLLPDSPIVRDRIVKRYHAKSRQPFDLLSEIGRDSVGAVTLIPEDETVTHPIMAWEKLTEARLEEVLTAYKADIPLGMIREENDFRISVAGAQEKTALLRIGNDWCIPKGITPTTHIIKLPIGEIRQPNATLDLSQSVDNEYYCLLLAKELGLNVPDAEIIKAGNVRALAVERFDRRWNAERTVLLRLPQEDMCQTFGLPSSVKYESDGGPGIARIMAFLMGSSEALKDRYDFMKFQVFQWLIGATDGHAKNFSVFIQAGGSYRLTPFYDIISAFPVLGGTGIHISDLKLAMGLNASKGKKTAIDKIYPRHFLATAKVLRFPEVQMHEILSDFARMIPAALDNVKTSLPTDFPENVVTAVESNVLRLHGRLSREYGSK

Nc1ncnc2c1ncn2[C@@H]1O[C@H](COP(=O)(O)OP(=O)(O)NP(=O)(O)O)[C@@H](O)[C@H]1O [AMPPNP]
ITC: revealed no interaction between ATP or the nonhydrolyzable ATP analogue, AMPPNP
